Measurements from patent US20170246137A1, “SULFESTROL FOR TREATING CANCER” (CHAMAELEO PHARMA BVBA, priority 2012, published 2017).
“And” between values parts separate entries of the source, which are not always exact repeats. Equal entries are not always repeated.

Key:
[1] = system: platelet-rich plasma (PRP); test: Platelet-aggregation-inducing effects in platelet-rich plasma, absorbance 630 nm; type: cell-based; conditions: 7 minutes, human PRP
Procedure: Blood necessary to generate PRP was obtained from 4 healthy human volunteers. 100 ml of fresh venous blood from each donor was isolated directly into tubes containing 1/10th volume of the anti-coagulant Tri-Sodium Citrate (3.2% w/v). The blood and anti-coagulant were immediately mixed and the final concentration of Tri-Sodium Citrate was 0.0106 M.
PRP was prepared by centrifugation of anti-coagulated blood at 180 g for 10 minutes at room temperature. The cloudy yellow supernatant containing the platelets was removed and placed into a clean polypropylene tube. Platelet-poor plasma (PPP) was prepared by centrifuging the remaining sample at 1,200 g for 20 minutes at room temperature. The PRP was adjusted to a suitable platelet count and absorbance at 630 nm by addition of PPP.
All three compounds were dissolved in 100% DMSO to give a stock concentration of 60 mM. […] […] 100 nM gamma thrombin (Cambridge bioscience) was used as control for platelet aggregation. 90 μl aliquots of PRP were added to 96 wells plates. A baseline absorbance reading was taken at 630 nm. 5 μl of the compounds and gamma thrombin control was added to the appropriate PRP.
The plates were incubated at room temperature for 7 minutes on a plate shaker with continuous shaking. A second A630 nm reading was made after the 7 minutes incubation to measure any platelet aggregation induced by the compounds.

[2] = In vitro metabolism in human liver microsomes (STS and CYP); type: in vitro ADME; set-up: Clint: unit not given here
Procedure: In vitro metabolism pathways of DES, Mono-Sulfestrol and Di-Sulfestrol in human liver microsomes were investigated.
Special emphasis was put on desulfatation by steroid sulfatase (STS) and oxidation by cytochrome P (CYP) metabolism. Liver microsomes (Celsis in vitro Technologies) were used at a concentration of 0.5 mg/ml in a volume of 600 μl phosphate buffer pH 7.4. Estrone-3-sulfate was used as positive control.
5 μM of each compound (test and control compound) was added to the liver microsomes and the mixture was incubated at 37° C. for 5, 10, 20, 30, 50, 90 and 120 minutes. After incubation, aliquots of 45 μl were taken which were subsequently quenched with 150 μl ice cold methanol. Aliquots were incubated ≧1 h at −20° C. for protein precipitation. After precipitation, samples were centrifuged and remaining supernatant was used for analysis with LC-MS/MS. Half life of the compounds, speed of metabolism or intrinsic clearance (Clint), and contribution to metabolism of CYP and STS metabolism were calculated based on the data obtained at each time point.

[3] = Concentration of Mono-Sulfestrol in pooled plasma samples, LC-UV quantification; type: in vivo, male Sprague Dawley rats; conditions: 10 mg/kg of the labelled compound, rat, pooled 0.5-8 hrs
Procedure: The concentration of Mono-Sulfestrol in the pooled samples described in Example 6 was quantified by LC-UV quantification.
A calibration standard solution was prepared as 10,000 ng/mL by adding an appropriate amount of Mono-Sulfestrol into 20% acetonitrile/0.1% formic acid in water. The peak area of the standard solution and the sample were measured with the wavelength set at 200 to 360 nm. The concentration levels of Mono-Sulfestrol were estimated using peak area (Area) of the standard and unknown samples and concentration of the standard (Concstd) by the following equation:
Areaunknown/Areastd=Concunknown/Concstd
Concunknown=Concstd·(Areaunknown/Areastd)

[4] = Estrogenic activity: body weight and plasma cholesterol levels; type: in vivo, male Sprague-Dawley rats; conditions: for Mean bodyweight: in g (unit assumed)
Procedure: Estrogenic activity was determined by measuring body weight and plasma cholesterol levels.
Each animal was dosed three times a day with vehicle or test compound (1st dose 7:30-8:00, 2nd dose 12:30-13:00, 3rd dose 17:00-17:30) for 14 consecutive days.
After 14 days treatment, blood was collected from the animals via cardiac puncture 4 hrs past final dosing to analyze plasma cholesterol levels. The blood was immediately transferred to a tube containing 0.5M EDTA anticoagulant. It was mixed gently and centrifuged at 1000×g at 4° C. for 15 min. Plasma was aspirated from the centrifuged blood samples, quick frozen on dry ice and stored at −80° C. for later use.
Plasma cholesterol levels were determined using a commercial ELISA kit obtained from NovaTeinBio (BG-RAT11262). Standard protocol accompanied by the kit was used without any adjustments.

[5] = system: MDA-MB-231 Dlux; test: Orthotopic spontaneous metastasis breast model, whole body bioluminescence; type: in vivo, female MF-1 nude mice; conditions: for total flux, whole body bioluminescence: mono-Sulfestrol 60 mg/kg, di-Sulfestrol 80 mg/kg orally once a day
Procedure: Female MF-1 nude mice (HsdOla:MF1-Foxn1nu, Harlan, UK) were divided into 3 groups of each 8 mice (n=8):
The mice were 5-6 weeks old at the start of the study and were maintained in sterile isolators within a barriered unit illuminated by fluorescent lights set to give a 12 hour light-dark cycle (on 07.00, off 19.00). The room was air-conditioned to maintain an air temperature range of 23±2° C. Sterile irradiated 2019 rodent diet (Harlan Teklad UK, product code Q219DJ1R2) and autoclaved water were offered ad libitum.
The MDA-MB-231 Dlux cells were maintained in vitro in RPMI containing 2 mM L-Glut and (Life Technologies, UK) and 10% (v/v) heat-inactivated foetal bovine serum (Sigma, Poole, UK) at 37° C. in 5% CO2 and humidified conditions. Cells were treated with Zeocin once a week at 0.4 mg/mL.
On the day of initiation cells were harvested from semi-confluent monolayers with 0.05% Trypsin-EDTA, washed twice in the culture medium and counted. Cells with viability of >90% were re-suspended, for in vivo administration, in 1:1 PBS:Matrigel at 2×10^6 cells/0.1 mL. Prior to injection, the cell suspension was homogenized and 0.1 mL of cell suspension was drawn into a 1 mL syringe. The cell suspension was then injected orthotopically into the lower left-side 2nd mammary fat pad of each mouse under anaesthesia (Medetomidine/Ketamine).
On day 7 after initiation and every six days thereafter, the mice were injected (s.c.) with 150 mg/kg D-Luciferin. 10 minutes following administration of D-Luciferin mice were anaesthetised and 15 minutes after administration they were placed into an imaging chamber (Spectrum CT) and imaged for luminescence (ventral view; whole body and shielding of the primary tumor). Images were captured and processed by Living Image 4.3.1 software (Caliper LS, US.).
On day 7 after initiation mice were assigned to groups such that there was a uniform mean bioluminescent signal between the groups.

[6] = cited from earlier work
[7] = cited from earlier work; remark: listed apart in the source
[8] = Metabolites in plasma after oral and intravenous administration, LC-MS/MS; conditions: 10 mg/kg oral and intravenous
[9] = orally administered, daily doses of 2 mg; cited from earlier work
[10] = nothing added (STS active, CYP inactive), 5 μM

**Q.** What does the source list for “4,4′-(hex-3-ene-3,4-diyl)bis(4,1-phenylene) disulfate [Di-Sulfestrol]”?
**A.** Absorbance (630 nm) ([1]; 2.3 μM, high absorbance = low aggregation): 0.260 ± 0.030; Absorbance (630 nm) ([1]; 4.7 μM): 0.253 ± 0.024; Absorbance (630 nm) ([1]; 9.4 μM): 0.266 ± 0.039; Absorbance (630 nm) ([1]; 18.75 μM): 0.254 ± 0.025; Absorbance (630 nm) ([1]; 37.5 μM): 0.260 ± 0.027; Absorbance (630 nm) ([1]; 75 μM): 0.264 ± 0.031; Absorbance (630 nm) ([1]; 150 μM): 0.266 ± 0.034; metabolism pathway in human liver microsomes (in words) [2]: only metabolized by STS enzymes; Clint [2, 10]: 31; Contribution to metabolism [2, 10]: 85%; Half-life [2, 10]: 45 min; Mono-Sulfestrol concentration in pooled plasma sample ([3]; intravenous): 735.9 ng/ml and 1.7 μM; Mono-Sulfestrol concentration in pooled plasma sample ([3]; oral): 261.3 ng/ml and 0.6 μM; Mean bodyweight ([4]; Day 0, DES 1.5 mg/kg per day, Di-Sulfestrol 3 mg/kg per day, three doses a day): 387 ± 6.9; Mean bodyweight ([4]; Day 2): 381 ± 8.3; Mean bodyweight ([4]; Day 4): 368 ± 9.5; Mean bodyweight ([4]; Day 6): 357 ± 9.2; Mean bodyweight ([4]; Day 8): 348 ± 8.5; Mean bodyweight ([4]; Day 10): 344 ± 7.2; Mean bodyweight ([4]; Day 12): 341 ± 7.5; Mean bodyweight ([4]; Day 14): 333 ± 6.67; Cholesterol (plasma) ([4]; after 14 days treatment, 4 hrs past final dosing, DES 1.5 mg/kg per day, Di-Sulfestrol 3 mg/kg per day): 12.1 ± 0.799 nmol/L; estrogenic activity in rats (in words) ([4]; lowering body weight and cholesterol levels): show estrogenic activity; total flux, whole body bioluminescence ([5]; Day 7 (before start of treatment)): 1.73 10^9 photons/second; total flux, whole body bioluminescence ([5]; Day 13): 8.84 10^9 photons/second; total flux, whole body bioluminescence ([5]; Day 19): 16.2 10^9 photons/second; effect on tumor progression (in words) ([5]; oral, MDA-MB-231 Dlux in mice): tumor progression inhibiting effect; tolerance (in words) ([6]; mice, intravenously injectable): well tolerated in mice; estrogenic activity (in words) ([6]; mouse, in vivo): has estrogenic activity; water solubility (in words) [7]: water soluble; metabolic fate in rat plasma (in words) [8]: mostly converted into Mono-Sulfestrol

**Q.** For stilbestrol sulfate, which “estrogenic activity relative to stilbestrol” value [9] is on record?
**A.** 44%
